Several values for one entry are separate records, joined by “and”; a condition that tells them apart may be missing. Identical values can stand only once. Like-named read-outs stand apart in the source and are kept apart here.
Assays:
[1] = system: transgenic soybean expressing mutated PPO; test: Soybean segregating T1 individuals, greenhouse spray test (injury 0-9); format: in vivo, Glycine max; conditions: 1 week after treatment
[2] = system: transgenic Arabidopsis thaliana plants expressing wildtype or mutated PPO; test: Germination / growth inhibition assay of transgenic Arabidopsis T2 seeds in 48-well plates; conditions: growth inhibition seven to ten days after seeding
[3] = system: transgenic soybean expressing mutated PPO; format: in vivo, Glycine max; conditions: T1 soybean, field, 3 days after treatment; for injury (1-5 point scale): benzoxazin 50 g ai/ha; for injury (1-5 point scale): key: 1: no obvious damage (no phytotoxicity); 2: minor amount of leaf damage, plant will survive; 3: moderate amount of leaf damage, plant will survive; 4: severe amount of leaf damage, plant will survive; 5: no surviving plants - all plants dead/dying
[4] = transgenic Arabidopsis AMATU_PPO2_F420I
[5] = transgenic Arabidopsis AMATU_PPO2_F420L
[6] = transgenic Arabidopsis AMATU_PPO2_F420M
[7] = transgenic Arabidopsis AMATU_PPO2_R128A_F420I
[8] = transgenic Arabidopsis AMATU_PPO2_R128A_F420L
[9] = transgenic Arabidopsis AMATU_PPO2_R128A_F420M
[10] = transgenic Arabidopsis AMATU_PPO2_R128L
[11] = transgenic Arabidopsis AMATU_PPO2_dG210
[12] = transgenic Arabidopsis AMATU_PPO2_dG210_R128L
[13] = transgenic Arabidopsis AMATU_PPO2_wt

SMILES: C#CCN1C(=O)COc2cc(F)c(N3C(=O)C4=C(CCCC4)C3=O)cc21 [Flumioxazin, flumioxazin]
- injury (0-9 point scale) ([1]; SDS10791 AmtuPPX2L R128A_F420I, Flumioxazin 150 g ai/ha): 3 (5×) and 1 (3×)
- injury (0-9 point scale) ([1]; SDS-10642 AmtuPPX2L R128A_F420L, Flumioxazin 150 g ai/ha): 3 (3×) and 2 (2×) and 1 (2×) and 9
- injury (0-9 point scale) ([1]; SDS-10648 AmtuPPX2L R128A_F420I, Flumioxazin 150 g ai/ha): 9 (5×) and 5 (3×)
- injury (0-9 point scale) ([1]; SDS-10652 AmtuPPX2L L397D_F420V, Flumioxazin 150 g ai/ha): 9 and 6 (3×) and 5 (2×) and 4 (2×)
- injury (0-9 point scale) ([1]; SDS-10787 AmtuPPX2L R128A_F420L, Flumioxazin 150 g ai/ha): 9 (2×) and 5 (4×) and 4 (2×)
- injury (0-9 point scale) ([1]; SDS-10985 AmtuPPX2L R128A_F420M, Flumioxazin 150 g ai/ha): 9 (3×) and 6 (2×) and 4 (2×) and 5
- injury (0-9 point scale) ([1]; SDS-10990 AmtuPPX2L R128A_F420M, Flumioxazin 150 g ai/ha): 6 (5×) and 5 (2×) and 9
- injury (0-9 point scale) ([1]; SDS-11034 AmtuPPX2L R128A_F420V, Flumioxazin 150 g ai/ha): 5 (3×) and 4 and 6 (2×) and 9 and 3
- injury (0-9 point scale) ([1]; wild type, Flumioxazin 150 g ai/ha): 9

SMILES: CS(=O)(=O)NC(=O)c1cc(Oc2ccc(C(F)(F)F)cc2Cl)ccc1[N+](=O)[O-] [Fomesafen, fomesafen]
- Relative tolerance rate as compared to a non-transgenic Arabidopsis plant (non-transgenic = 1.0) [2, 4]: 18
- Relative tolerance rate as compared to a non-transgenic Arabidopsis plant (non-transgenic = 1.0) [2, 5]: 23
- Relative tolerance rate as compared to a non-transgenic Arabidopsis plant (non-transgenic = 1.0) [2, 6]: 29
- Relative tolerance rate as compared to a non-transgenic Arabidopsis plant (non-transgenic = 1.0) [2, 7]: 29
- Relative tolerance rate as compared to a non-transgenic Arabidopsis plant (non-transgenic = 1.0) [2, 8]: 29
- Relative tolerance rate as compared to a non-transgenic Arabidopsis plant (non-transgenic = 1.0) [2, 9]: 29
- Relative tolerance rate as compared to a non-transgenic Arabidopsis plant (non-transgenic = 1.0) [2, 10]: 27
- Relative tolerance rate as compared to a non-transgenic Arabidopsis plant (non-transgenic = 1.0) [2, 11]: 29
- Relative tolerance rate as compared to a non-transgenic Arabidopsis plant (non-transgenic = 1.0) [2, 12]: 29
- Relative tolerance rate as compared to a non-transgenic Arabidopsis plant (non-transgenic = 1.0) [2, 13]: 19
- injury (0-9 point scale) ([1]; SDS10791 AmtuPPX2L R128A_F420I, Fomesafen 600 g ai/ha): 6 and 3 (2×) and 1 (3×) and 4 and 2
- injury (0-9 point scale) ([1]; SDS-10642 AmtuPPX2L R128A_F420L, Fomesafen 600 g ai/ha): 0 (4×) and 1 (4×)
- injury (0-9 point scale) ([1]; SDS-10648 AmtuPPX2L R128A_F420I, Fomesafen 600 g ai/ha): 5 and 3 (6×) and 4
- injury (0-9 point scale) ([1]; SDS-10652 AmtuPPX2L L397D_F420V, Fomesafen 600 g ai/ha): 1 (2×) and 2 (2×) and 0 (3×) and 4
- injury (0-9 point scale) ([1]; SDS-10787 AmtuPPX2L R128A_F420L, Fomesafen 600 g ai/ha): 1 (2×) and 0 (2×) and 2 (2×) and 5 and 3
- injury (0-9 point scale) ([1]; SDS-10985 AmtuPPX2L R128A_F420M, Fomesafen 600 g ai/ha): 3 (3×) and 0 (2×) and 1 (2×) and 5
- injury (0-9 point scale) ([1]; SDS-10990 AmtuPPX2L R128A_F420M, Fomesafen 600 g ai/ha): 1 (2×) and 3 and 0 (2×) and 4 and 5 (2×)
- injury (0-9 point scale) ([1]; SDS-11034 AmtuPPX2L R128A_F420V, Fomesafen 600 g ai/ha): 2 (2×) and 0 (3×) and 1 (3×)
- injury (0-9 point scale) ([1]; wild type, Fomesafen 600 g ai/ha): 5 (4×) and 4 (4×)

SMILES: CCOC(=O)C(C)OC(=O)c1cc(Oc2ccc(C(F)(F)F)cc2Cl)ccc1[N+](=O)[O-] (stereo not shown) [Lactofen, lactofen]
- Relative tolerance rate as compared to a non-transgenic Arabidopsis plant (non-transgenic = 1.0) [2, 4]: 17
- Relative tolerance rate as compared to a non-transgenic Arabidopsis plant (non-transgenic = 1.0) [2, 5]: 19
- Relative tolerance rate as compared to a non-transgenic Arabidopsis plant (non-transgenic = 1.0) [2, 6]: 29
- Relative tolerance rate as compared to a non-transgenic Arabidopsis plant (non-transgenic = 1.0) [2, 7]: 27
- Relative tolerance rate as compared to a non-transgenic Arabidopsis plant (non-transgenic = 1.0) [2, 8]: 29
- Relative tolerance rate as compared to a non-transgenic Arabidopsis plant (non-transgenic = 1.0) [2, 9]: 29
- Relative tolerance rate as compared to a non-transgenic Arabidopsis plant (non-transgenic = 1.0) [2, 10]: 22
- Relative tolerance rate as compared to a non-transgenic Arabidopsis plant (non-transgenic = 1.0) [2, 11]: 19
- Relative tolerance rate as compared to a non-transgenic Arabidopsis plant (non-transgenic = 1.0) [2, 12]: 29
- Relative tolerance rate as compared to a non-transgenic Arabidopsis plant (non-transgenic = 1.0) [2, 13]: 8

SMILES: CCOc1cc(Oc2ccc(C(F)(F)F)cc2Cl)ccc1[N+](=O)[O-] [Oxyfluorfen]
- injury (0-9 point scale) ([1]; SDS10791 AmtuPPX2L R128A_F420I, Oxyfluorfen 600 g ai/ha): 4 (3×) and 8 and 5 (3×) and 3
- injury (0-9 point scale) ([1]; SDS10791 AmtuPPX2L R128A_F420I, Oxyfluorfen 1200 g ai/ha): 9 (2×) and 4 (2×) and 5 (4×)
- injury (0-9 point scale) ([1]; SDS-10642 AmtuPPX2L R128A_F420L, Oxyfluorfen 600 g ai/ha): 2 (3×) and 4 and 3 (3×) and 8
- injury (0-9 point scale) ([1]; SDS-10648 AmtuPPX2L R128A_F420I, Oxyfluorfen 600 g ai/ha): 5 and 7 and 6 (2×) and 8 (2×) and 9 and 3
- injury (0-9 point scale) ([1]; SDS-10648 AmtuPPX2L R128A_F420I, Oxyfluorfen 1200 g ai/ha): 5 (3×) and 9 (4×) and 4
- injury (0-9 point scale) ([1]; SDS-10652 AmtuPPX2L L397D_F420V, Oxyfluorfen 600 g ai/ha): 4 (3×) and 5 and 6 (2×) and 9
- injury (0-9 point scale) ([1]; SDS-10787 AmtuPPX2L R128A_F420L, Oxyfluorfen 600 g ai/ha): 6 (3×) and 5 (2×) and 8
- injury (0-9 point scale) ([1]; SDS-10985 AmtuPPX2L R128A_F420M, Oxyfluorfen 600 g ai/ha): 1 and 3 (3×) and 4 (3×) and 9
- injury (0-9 point scale) ([1]; SDS-10985 AmtuPPX2L R128A_F420M, Oxyfluorfen 1200 g ai/ha): 5 (3×) and 4 (3×) and 8 (2×)
- injury (0-9 point scale) ([1]; SDS-10990 AmtuPPX2L R128A_F420M, Oxyfluorfen 600 g ai/ha): 4 (4×) and 8 and 3 and 9 and 5
- injury (0-9 point scale) ([1]; SDS-10990 AmtuPPX2L R128A_F420M, Oxyfluorfen 1200 g ai/ha): 9 and 5 (5×) and 4 (2×)
- injury (0-9 point scale) ([1]; SDS-11034 AmtuPPX2L R128A_F420V, Oxyfluorfen 600 g ai/ha): 4 (3×) and 9 and 5 (3×)
- injury (0-9 point scale) ([1]; wild type, Oxyfluorfen 600 g ai/ha): 8 (3×) and 7 (3×) and 9 (2×)

SMILES: C1=Cc2ccccc2ON1 [benzoxazin]
- Injury rating (1-5 point scale) ([3]; SDS-10562 LTM377-1 AmtuPPX2L_dG210, benzoxazin (50 gai/ha)): 3
- Injury rating (1-5 point scale) ([3]; SDS-10562 LTM377-1 AmtuPPX2L_dG210, benzoxazin (100 gai/ha)): 3
- Injury rating (1-5 point scale) ([3]; SDS-10566 LTM377-1 AmtuPPX2L_dG210, benzoxazin (50 gai/ha)): 3
- Injury rating (1-5 point scale) ([3]; SDS-10566 LTM377-1 AmtuPPX2L_dG210, benzoxazin (100 gai/ha)): 3
- injury (1-5 point scale) ([3]; SDS-10648 AmtuPPX2L R128A_F420I): 3
- Injury rating (1-5 point scale) ([3]; SDS-10656 LTM377-1 AmtuPPX2L_dG210, benzoxazin (50 gai/ha)): 4
- Injury rating (1-5 point scale) ([3]; SDS-10656 LTM377-1 AmtuPPX2L_dG210, benzoxazin (100 gai/ha)): 4
- injury (1-5 point scale) ([3]; SDS-10791 AmtuPPX2L R128A_F420I): 2
- Injury rating (1-5 point scale) ([3]; SDS-10998 LTM387-1 AmtuPPX2L_R128A_F420V, benzoxazin (50 gai/ha)): 2.5
- Injury rating (1-5 point scale) ([3]; SDS-10998 LTM387-1 AmtuPPX2L_R128A_F420V, benzoxazin (100 gai/ha)): 2.5
- injury (1-5 point scale) ([3]; SDS-11014 AmtuPPX2L R128A_F420I): 2
- injury (1-5 point scale) ([3]; SDS-11034 AmtuPPX2L L397D_F420V): 2
- Injury rating (1-5 point scale) ([3]; SDS-11034 LTM387-1 AmtuPPX2L_R128A_F420V, benzoxazin (50 gai/ha)): 2
- Injury rating (1-5 point scale) ([3]; SDS-11034 LTM387-1 AmtuPPX2L_R128A_F420V, benzoxazin (100 gai/ha)): 2
- injury (1-5 point scale) ([3]; SDS-11035 AmtuPPX2L R128A_F420V): 2
- Injury rating (1-5 point scale) ([3]; SDS-11035 LTM387-1 AmtuPPX2L_R128A_F420V, benzoxazin (50 gai/ha)): 2
- Injury rating (1-5 point scale) ([3]; SDS-11035 LTM387-1 AmtuPPX2L_R128A_F420V, benzoxazin (100 gai/ha)): 2
- injury (1-5 point scale) ([3]; SDS-11052 AmtuPPX2L R128A_F420M): 3
- Injury rating (1-5 point scale) ([3]; SDS-11105 LTM387-1 AmtuPPX2L_R128A_F420V, benzoxazin (50 gai/ha)): 3
- Injury rating (1-5 point scale) ([3]; SDS-11105 LTM387-1 AmtuPPX2L_R128A_F420V, benzoxazin (100 gai/ha)): 3
- Injury rating (1-5 point scale) ([3]; SDS-11110 LTM387-1 AmtuPPX2L_R128A_F420V, benzoxazin (50 gai/ha)): 3
- Injury rating (1-5 point scale) ([3]; SDS-11110 LTM387-1 AmtuPPX2L_R128A_F420V, benzoxazin (100 gai/ha)): 3
- Injury rating (1-5 point scale) ([3]; Wildtype Jake, benzoxazin (50 gai/ha)): 5
- Injury rating (1-5 point scale) ([3]; Wildtype Jake, benzoxazin (100 gai/ha)): 5
- injury (1-5 point scale) ([3]; wild type): 5

— US11866720B2, “Transgenic or non-transgenic plants with mutated protoporphyrinogen oxidase having increased tolerance to herbicides” (priority 2013, dated 2024)
